What all share (assay): NCI tumour cell line growth inhibition, 48 h
The test system of test [1] is LOX IMVI melanoma.
Test [2] relates to M14 melanoma.
For test [3], the system named is NCI-H226 lung.
In test [4] the test system is NCI-H460 lung.
The test system of test [5] is OVCAR-5 ovarian.
In test [6] the test system is SK-MEL-2 melanoma.
The test system of test [7] is SN12C renal.
In test [8] the test system is SW-620 colon.
Test [9] relates to U251 CNS.
Test [10] deals with UACC-257 melanoma.

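Grown in 96-well plates, cells were treated for 48 hours with each compound at five concentrations. Insufficient inhibition: endpoint recorded as highest concentration tested. GI50: concentration for 50% inhibition of growth. TGI: concentration producing complete growth inhibition.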

Turning to `C=CCCn1nc(-c2ccccc2)oc1=O`, the TGI in test [1], in [2], in [3], in test [4], in [5] and in test [6] was > 100 µM each time. In addition, the TGI in [7], in test [8], in test [9] and in test [10] was > 100 µM each time.

For `COc1ccc2c(n1)Sc1nc3ccccc3nc1N2`, the TGI is > 100 µM in test [1]; > 100 µM in test [2]; 34 µM in test [3]; > 100 µM in test [4]; > 100 µM in [5]; > 100 µM in [6]. The TGI in test [7] was 71.6 µM; in [8] it was > 100 µM; in [9] it was 52.7 µM; in test [10], > 100 µM.

Consider `CCOC(=O)c1ccc(N2NC(=O)/C(=C/c3ccc([N+](=O)[O-])o3)C2=O)cc1`, for which the GI50 in [1] is 17.7 µM; in [2], 17 µM; in [3], > 41 µM; in [4], > 43.3 µM; in [5] it was 19 µM; in test [6], > 40.6 µM. Further, the GI50 in [7] was 27.5 µM; in test [8], 4.3 µM; in test [9], 39.9 µM; in [10], 16 µM. The TGI in test [1] was 34.4 µM; in test [2] it was 31.6 µM; in [3], > 56.5 µM; in test [4] it was > 60.7 µM; in [5], 40.7 µM; in [6], > 55.4 µM. For the same compound, the TGI in test [7] was > 55.8 µM; in [8], 9.38 µM; in test [9] it was > 66.6 µM; in [10] it was 30.8 µM.

As for `C=CC12CCCCC1CC(C(=O)OC)=C(O)C2` (stereo not given), the TGI in test [1], in [2], in [3], in test [4], in [5] and in test [6] was > 100 µM in each case. The TGI in [7], in test [8], in [9] and in test [10] was > 100 µM in each case.

Take `O=CCCn1[nH]c(=O)ccc1=O`: the TGI in [1], in [2], in [3], in test [4], in test [5] and in test [6] was > 100 µM in each case. Further, the TGI in [7], in test [8], in test [9] and in test [10] was > 100 µM throughout.

Regarding `NC1=NN(c2ccccc2)C(=O)C1C(=O)C(=O)Nc1ccccc1` (stereo not given), the TGI in test [1], in test [2], in [3], in test [4], in test [5] and in test [6] was > 100 µM throughout. The TGI in test [7], in test [8], in test [9] and in test [10] was > 100 µM throughout.

For the compound `Cc1nnn(C)c1-c1cnc2c3ccc(C(C)(C)O)cc3n([C@H](c3ccccc3)C3CCOCC3)c2c1`, the GI50 was < 0.01 µM in test [1]; < 0.01 µM in test [2]; 0.356 µM in [3]; 0.966 µM in test [4]; 0.0907 µM in [5]; 0.765 µM in test [6]. Also, the GI50 in [7] was 1.4 µM; in test [8], 7 µM; in [9] it was 0.27 µM; in test [10], < 0.0132 µM. Besides, the TGI is 1.52 µM in test [1]; 30.9 µM in test [2]; 23.4 µM in [3]; > 65.7 µM in test [4]; > 100 µM in test [5]; 30.7 µM in test [6]. For the same compound, the TGI was > 74.9 µM in test [7], > 72.1 µM in test [8], > 47.5 µM in test [9] and 31.3 µM in [10].

Regarding `Cc1ccc(/C(=N/NS(=O)(=O)c2cc(C)c(Cl)cc2Cl)Sc2cc(Cl)c(C)cc2S(N)(=O)=O)cc1`, the GI50 in test [1], in [2], in test [3], in [4], in test [5] and in [6] was > 100 µM throughout. Also, the GI50 in test [7], in test [8], in test [9] and in test [10] was > 100 µM each time. For the same compound, the TGI in test [1], in test [2], in [3], in [4], in test [5] and in [6] was > 100 µM each time. The TGI in [7], in test [8], in [9] and in test [10] was > 100 µM each time.

With `CC(C)C1=Cc2ccc3c(c2C(=O)C1=O)CCCC3`, the TGI in test [1] was found to be 25.6 µM; in [2] it was 11.1 µM; in test [3], 36.1 µM; in test [4] it was 26.6 µM; in [5] it was 28.6 µM; in test [6] it was 18.8 µM. Also, the TGI turned out to be 13.1 µM in test [7], 14 µM in [8], 42.4 µM in test [9] and 6.57 µM in [10].

For the compound `Clc1ccc(-c2cnc3c(-c4ccnc(N5CCNCC5)c4)cnn3c2)cc1`, the GI50 was 1.91 µM in [1]; 2 µM in test [2]; 21.4 µM in test [3]; 1.89 µM in test [4]; 1.82 µM in test [5]; 0.561 µM in test [6]. For the same compound, the GI50 in test [7] was 1.7 µM; in [8], 1.78 µM; in [9] it was 1.89 µM; in [10], 2.08 µM. Also, the TGI in test [1] was 3.48 µM; in test [2] it was 3.46 µM; in [3], 44.7 µM; in test [4], 3.53 µM; in [5], 3.29 µM; in test [6], 1.69 µM. In addition, the TGI stood at 3.34 µM in test [7], 3.27 µM in test [8], 3.51 µM in test [9] and 3.82 µM in test [10].

Values taken from PubChem BioAssay (NCI).
